This is an account of results in patent US8927545B2, “Inhibiting Eph B-3 kinase” (Duke University, priority 2009, dated 2015).

Assay [1] has as its target T1, recombinant human EphB3 kinase (Homo sapiens, UniProt P54753).
T1 sequence (P54753 633-896 limits assumed): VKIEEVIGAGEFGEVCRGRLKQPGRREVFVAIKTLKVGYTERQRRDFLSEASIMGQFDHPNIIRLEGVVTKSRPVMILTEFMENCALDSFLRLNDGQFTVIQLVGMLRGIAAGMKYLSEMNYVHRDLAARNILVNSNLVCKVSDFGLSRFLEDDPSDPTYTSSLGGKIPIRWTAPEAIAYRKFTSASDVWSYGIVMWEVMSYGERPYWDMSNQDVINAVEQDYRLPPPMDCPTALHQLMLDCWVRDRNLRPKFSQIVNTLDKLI
Briefly: IC50 for inhibiting EphB3 phosphorylation of the BTK peptide (33P radiometric assay, assay of Examples 1-6). The class given is biochemical. The following applies: for IC50: inhibiting EphB3 phosphorylation of the BTK peptide (SEQ ID NO: 4); for EphB3 tyrosine kinase inhibitor activity (in words): inhibition of EphB3 phosphorylation of the BTK peptide.

For assay [2], the system named is Animal Model for Stroke (ischemia). In words: Neurological score / neurological deficit after ischemic injury. The following applies: rated between 0 (unaffected) and 4 (worst); different doses; FIG. 7(B).
Assay [3] has the same test system. In words: Infarct volume in animal model for stroke (2 h artery occlusion, compound ICV, TTC staining). It is filed as in vivo, Sprague-Dawley rats. The following applies: different doses administered ICV; FIG. 6(E), FIG. 7(A).
Assay [4] concerns panel of tumor cell lines. In words: Dose-response against a panel of tumor cell lines (SRB, % growth). It is filed as cell-based, human. The following applies: leukemia, non-small cell lung, colon, CNS, melanoma, ovarian, renal, prostate, breast cancer lines; FIG. 8(A)-(I). As for the experimental part: The y-axis depicts the % growth and the x-axis depicts the compound concentration. The legends below each graph refer to the different tumor cell lines used. […]
The human tumor cell lines of the cancer screening panel were grown in RPMI 1640 medium containing 5% fetal bovine serum and 2 mM L-glutamine. For a typical screening experiment, cells were inoculated into 96 well microtiter plates in 100 μL at plating densities ranging from 5,000 to 40,000 cells/well depending on the doubling time of individual cell lines. After cell inoculation, the microtiter plates were incubated at 37° C., 5% CO2, 95% air and 100% relative humidity for 24 hours prior to addition of experimental drugs. […]
Following drug addition, the plates were incubated for an additional 48 h at 37° C., 5% CO2, 95% air, and 100% relative humidity. […] Bound stain was subsequently solubilized with 10 mM trizma base, and the absorbance is read on an automated plate reader at a wavelength of 515 nm. […] Using the seven absorbance measurements [time zero, (Tz), control growth, (C), and test growth in the presence of drug at the five concentration levels (Ti)], the percentage growth was calculated at each of the drug concentrations levels. Percentage growth inhibition was calculated as: [(Ti−Tz)/(C−Tz)]×100 for concentrations for which Ti>/=Tz [(Ti−Tz)/Tz]×100 for concentrations for which Ti<Tz. […]

In assay [5] the target is T2, recombinant human EphB3 kinase (Homo sapiens, UniProt P54753).
T2 sequence (P54753 585-998): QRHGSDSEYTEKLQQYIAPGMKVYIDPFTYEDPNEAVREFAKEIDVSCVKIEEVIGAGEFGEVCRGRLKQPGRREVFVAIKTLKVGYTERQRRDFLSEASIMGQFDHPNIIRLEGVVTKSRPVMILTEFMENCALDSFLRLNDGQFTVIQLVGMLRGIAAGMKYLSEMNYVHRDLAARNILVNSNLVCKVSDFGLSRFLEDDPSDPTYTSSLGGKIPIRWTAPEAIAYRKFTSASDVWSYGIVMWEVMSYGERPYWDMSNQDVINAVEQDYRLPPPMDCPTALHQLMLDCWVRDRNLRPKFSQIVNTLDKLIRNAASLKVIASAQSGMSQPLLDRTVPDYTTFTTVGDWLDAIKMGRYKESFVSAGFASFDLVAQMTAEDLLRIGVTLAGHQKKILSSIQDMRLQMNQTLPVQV
Briefly: HTRF assay of BTK substrate phosphorylation by EphB3 kinase (known kinase inhibitors). On the technique in general: TR-FRET usually uses a lanthanide donor and a delayed reading to cut background.

The next assay has as its target T3, recombinant EphB3 (Homo sapiens, UniProt P54753).
T3 sequence (P54753 34-998): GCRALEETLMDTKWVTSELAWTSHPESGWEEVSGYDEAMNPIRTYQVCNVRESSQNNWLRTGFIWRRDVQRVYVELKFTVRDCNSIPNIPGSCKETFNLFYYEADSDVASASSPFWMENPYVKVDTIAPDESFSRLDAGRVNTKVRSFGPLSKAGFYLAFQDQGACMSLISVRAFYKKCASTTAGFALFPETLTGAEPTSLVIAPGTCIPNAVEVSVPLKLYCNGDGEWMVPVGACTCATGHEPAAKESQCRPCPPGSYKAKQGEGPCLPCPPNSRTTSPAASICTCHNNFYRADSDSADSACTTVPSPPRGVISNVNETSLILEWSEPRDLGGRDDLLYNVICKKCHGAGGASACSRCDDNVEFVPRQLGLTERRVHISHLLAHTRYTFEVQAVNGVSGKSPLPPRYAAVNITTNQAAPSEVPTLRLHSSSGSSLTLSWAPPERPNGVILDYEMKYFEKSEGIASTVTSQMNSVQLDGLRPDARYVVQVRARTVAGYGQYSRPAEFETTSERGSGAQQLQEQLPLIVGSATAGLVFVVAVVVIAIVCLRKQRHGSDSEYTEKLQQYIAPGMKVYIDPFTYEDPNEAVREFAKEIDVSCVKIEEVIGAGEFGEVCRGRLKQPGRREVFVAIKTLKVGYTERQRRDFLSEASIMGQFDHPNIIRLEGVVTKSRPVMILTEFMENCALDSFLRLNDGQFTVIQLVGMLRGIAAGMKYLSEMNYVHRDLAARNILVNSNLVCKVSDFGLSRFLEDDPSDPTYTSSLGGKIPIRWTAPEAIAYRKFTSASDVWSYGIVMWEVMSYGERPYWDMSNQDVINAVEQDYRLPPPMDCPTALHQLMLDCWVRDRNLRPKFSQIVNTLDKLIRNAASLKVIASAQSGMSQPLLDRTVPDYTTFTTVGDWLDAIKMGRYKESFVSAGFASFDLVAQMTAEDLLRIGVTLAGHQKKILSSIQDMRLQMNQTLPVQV
The following applies: published data, scintillation proximity assay, different substrate; cited from earlier work. In general terms: In a scintillation proximity assay essentially only radioactivity close to the scintillant gives light.

The mark [6] stands for this setting: Table 1 pyrazolo[1,5-a]pyridine compounds.

One may read the IC50 as the concentration needed to halve the response being measured. The inhibition is the drop in the measured response relative to a control, in per cent.

Structures are written as SMILES. “Also recorded” adds a separate entry of the source. A value given as a limit tells only on which side of the number the result lay.

For `O=C(Nc1ccccc1Cl)c1cnn2ncccc12` [Compound 193697], the IC50 in assay [1] (Table 2 candidate compounds) was > 20 µM.

`O=C(Nc1ccccc1Cl)c1cnc2ccc(C3CCNCC3)cn12` [Compound 211904, N-(2-chlorophenyl)-6-(piperidin-4-yl)imidazo[1,2-a]pyridine-3-carboxamide]: in assay [2], the Neurological deficit entry was “dose-dependent neuroprotection in behavior”. The “Infarct volume at different compound doses” value in assay [3] is listed as “dose-dependent decrease in infarct volume”. Further, in assay [4], the “% growth of tumor cell lines” value is “inhibited”.

In the case of `O=C(Nc1ccccc1Cl)c1cnc2ccc(Br)cn12` [Compound 209925, 6-bromo-N-(2-chlorophenyl)imidazo[1,2-a]pyridine-3-carboxamide], the IC50 in assay [1] (Table 3 imidazo[1,2-a]pyridine compounds) was < 0.2 µM.

On to `O=C(Nc1ccccc1Cl)c1cnn2ccc(N3CCCC3)cc12` [Compound 194727, N-(2-chlorophenyl)-5-(pyrrolidin-1-yl)pyrazolo[1,5-a]pyridine-3-carboxamide], for which, in assay [1] (setting [6]), the IC50 is < 0.3 µM.

Consider `CN(C(=O)c1cnn2ccccc12)c1ccccc1Cl` [Compound 187597], for which, in assay [1] (setting [6]), the IC50 is > 20 µM. Further, the “EphB3 tyrosine kinase inhibitor activity (in words)” value in assay [1] is “inactive”.

With `O=C(Nc1ccccc1)c1cnn2ccccc12` [Compound 187598], in assay [1] (setting [6]), the IC50 is > 20 µM. Besides, the “EphB3 tyrosine kinase inhibitor activity (in words)” value in assay [1] is reported as “little or no inhibition”.

As for `COc1ccccc1NC(=O)c1cnn2ccccc12` [Compound 187605], the IC50 in assay [1] (setting [6]) is > 20 µM. Besides, the “EphB3 tyrosine kinase inhibitor activity (in words)” value in assay [1] is on record as “little or no inhibition”.

On to `O=C(Nc1ccccc1Cl)c1ccnc2ccccc12` [Compound 187611], for which the IC50 in assay [1] (Table 2 candidate compounds) is > 20 µM.

Consider `CN[C@@H]1C[C@H]2O[C@@](C)([C@@H]1OC)n1c3ccccc3c3c4c(c5c6ccccc6n2c5c31)C(=O)NC4` [Staurosporine, staurosporine], for which the inhibition at 100 µM in assay [5] (read-out: inhibition of phosphorylation) was found to be 50%.

As for `O=C(Nc1ccccc1Cl)c1noc2ccccc12` [Compound 193671], the IC50 in assay [1] (Table 2 candidate compounds) was > 20 µM.

For `O=C(NCc1ccccc1Cl)c1cnn2ccccc12` [Compound 187604], the IC50 in assay [1] (setting [6]) was > 20 µM. In assay [1], the “EphB3 tyrosine kinase inhibitor activity (in words)” value is “little or no inhibition; also recorded: inactive”.

For the compound `Cc1cccc2c(C(=O)Nc3ccccc3Cl)cnn12` [Compound 193694], the IC50 in assay [1] (setting [6]) was > 20 µM.

In the case of `O=C(Nc1ccccc1Cl)c1cnn2cccnc12` [Compound 193695], the IC50 in assay [1] (Table 2 candidate compounds) was > 20 µM.

`Cn1cc(C(=O)Nc2ccccc2Cl)c2ccccc21` [Compound 187609]: the IC50 in assay [1] (Table 2 candidate compounds) was > 20 µM.

Consider `O=C(Nc1ccc(Cl)cc1)c1cnn2ccccc12` [Compound 187601], for which the IC50 in assay [1] (setting [6]) was > 20 µM. In addition, the “EphB3 tyrosine kinase inhibitor activity (in words)” value in assay [1] was “little or no inhibition”.

Regarding `O=C(Nc1ccccc1Cl)c1cnn2ccccc12` [Compound 1], in assay [1], the “EphB3 tyrosine kinase inhibitor activity (in words)” value was “showed EphB3 tyrosine kinase inhibitor activity”.

Consider `CC(C)(C)n1nc(-c2ccc(Cl)cc2)c2c(N)ncnc21` [PP2], for which the IC50 is 1.7 µM in assay [5] (12.5 nM EphB3, 30 min preincubation at RT, […] ATP, 600 nM BTK for 1 hr) and 0.8 µM on recombinant EphB3. Besides, the inhibition in assay [5] (at 10 μM, HTS positive control) is 80%.

As for `O=C(Nc1cccc(Cl)c1)c1cnn2ccccc12` [Compound 187600], the IC50 in assay [1] (setting [6]) was > 20 µM. In assay [1], the “EphB3 tyrosine kinase inhibitor activity (in words)” value is “little or no inhibition”.
